Experimental findings from US11730717B1, “Melanin-inspired antimicrobial” (The Board of Regents for the Oklahoma Agricultural and …, priority 2020, dated 2023) are described below.

SMILES strings stand for the structures. Entries after “also recorded” stand apart in the source; their conditions may differ. Where two headings read alike, the source gives them in different places.

In assay [1] the test system is MRSA. The experiment in a line: Kirby-Bauer disc diffusion assay. It is filed as cell-based, Staphylococcus aureus. The conditions noted are these: Staphylococcus aureus, 24-hour incubation at 37° C. Here is the method:
The susceptibility of MRSA to EIPE-1 was determined by the Kirby-Bauer disc diffusion method. Using a cotton swab applicator, a lawn of the S. aureus clinical isolate was placed onto Mueller Hinton agar plates to cover the entire surface of the plate. Filter discs (size=6 mm) were added onto the bacterial lawn. EIPE-1, DBI, and DMSO (10 μL each) were then added onto the filter discs.
The efficacy of compound EIPE-1 was tested by the Kirby-Bauer disc assay. The Kirby-Bauer disc assay assesses the sensitivity of bacteria to antimicrobial agents. If the bacteria are sensitive to the antimicrobial being tested, then a zone of inhibition of bacterial growth is seen around the filter disc containing the antimicrobial. The Kirby-Bauer disc assay was used to test the antimicrobial efficacy of EIPE-1 against MRSA. EIPE-1 was reconstituted at 1 mg/mL in DMSO and serially diluted (10^−1 to 10^−5) after which 10 μL of each dilution (and DMSO as a solvent control) was added to a separate disc on an LB plate inoculated with a lawn of bacteria. The plates were incubated at 37° C. for 24 h, and the resulting radii zone sizes around each disc were then measured.

The subject of assay [2] is MRSA. The experiment in a line: Live/Dead staining and fluorescent microscopy. Type of assay: cell-based, Staphylococcus aureus. Here is the method: MRSA was grown overnight in 10 mL of LB broth, sub-cultured (5 mL of overnight culture added to 20 mL LB) and grown for 3 h. Bacterial culture (150 μL) were removed and transferred to a 1.5 mL centrifuge tube, which was treated with DMSO, EIPE-1 (0.01 mg/mL) or DBI (0.01 mg/mL) for 30 minutes. Equal amounts of the two dyes (SYTO 9 dye, 3.34 mM in DMSO), and propidium iodide (20 mM in DMSO) were mixed. Then 0.5 μL of the dye mixture was added to each tube of treated MRSA cultures. Wet mounts were prepared on glass slides for imaging live and dead MRSA, and Differential Interference Contrast (DIC) images were obtained using a Leica DMI600B fluorescent microscope. To determine the percentage of bacteria alive and dead, the total bacteria in each condition were counted in 20 fields of view and graphed using Prism 5.0.
To address MRSA viability in response to EIPE-1 treatment, a Live/Dead staining and microscopy was utilized. MRSA was treated with either DBI or EIPE-1 (16 μg/mL, 17 μM each) for 30 minutes (DMSO was used as a negative solvent control) and then stained with the dyes, Syto™ 9 and propidium iodide.

Assay [3] has as its system MRSA. The experiment in a line: Comparison with Methicillin and Gentamicin, recoverable CFU. Type of assay: cell-based, Staphylococcus aureus. The conditions noted are these: compared with Methicillin and Gentamicin treatment. Here is the method: To determine CFUs of PA and MRSA after exposure to DMSO, DBI, EIPE-1, Gentamicin or Methicillin, 10-fold serial dilutions were prepared in 96-well micro plates using multichannel pipettes. For each dilution, 25 ptL of each sample was pipetted onto a plate containing agar medium and incubated for 18 h at 37° C. The number of colonies for each dilution were counted and used to back calculate the number of bacteria per mL (CFU/mL) in each original bacterial culture.
EIPE-1 antimicrobial activity against MRSA and PA was compared to that of Methicillin and Gentamicin treatment. Bacterial cultures were grown, normalized and then exposed to either DBI, DMSO (solvent control), EIPE-1, Methicillin or Gentamicin (FIG. 3). […] This is highly significant and novel as methicillin resistance is a huge problem in hospitals and patient treatment worldwide. […] Gram-negative bacteria like PA have an outer membrane covered with lipopolysaccharides that protects the bacteria from antibiotics, dyes, and detergents from penetrating the bacterial cell.

The next assay concerns P. moltocida P-1581. The experiment in a line: MIC and MBC values (Table 2). Type of assay: cell-based. As to conditions: Pasteurella, P1581.
For the next assay, the system named is E. faecalis. The experiment in a line: MIC and MBC values (Table 2). It is filed as cell-based, Enterococcus faecalis. The conditions noted are these: repeated determinations.
The next assay concerns S. lactis. The experiment in a line: MIC and MBC values (Table 2). Type of assay: cell-based. The conditions noted are these: repeated determinations.

As for `COC(=O)c1cc2c(C#Cc3ccc(OCCC[N+](C)(C)C)cc3)c(OC)c(OC)c(C#Cc3ccc(OCCC[N+](C)(C)C)cc3)c2n1C` [EIPE-1, 3,3′-((((5,6-dimethoxy-2-(methoxycarbonyl)-1-methyl-1H-indole-4,7-diyl)bis(ethyne-2,1-diyl))bis(4,1-phenylene))bis(oxy))bis(N,N,N-trimethylpropan-1-aminium) iodide], in the assay on MRSA [1] (10 μL of 0.01 mg/mL on disc), the zone of inhibition (as a rule, the extent of the growth-free halo in a diffusion test) at 10 µg/mL is 1 mm. Further, the zone of inhibition at 100 µg/mL in the assay with MRSA [1] (10 μL of 0.1 mg/mL on disc) is 1.5 mm. The compound further gave a zone of inhibition at 1000 µg/mL in the assay on MRSA [1] (10 μL of 1.0 mg/mL on disc) of 2 mm. In addition, in the assay with MRSA [2] (16 μg/mL, 17 μM, 30 minutes, Syto 9 and propidium iodide), the “Live/Dead staining (green = intact membrane, red = damaged membrane)” value is recorded as “only stained red”. Besides, the “time of exposure until biocidal activity occurred” value in the assay on MRSA [2] (MRSA) was not above 30 min. In the assay on MRSA [3], the “biocidal activity against MRSA” value is on record as “effective in killing MRSA; also recorded: exhibited biocidal activity”. For the same compound, in the assay on P. moltocida P-1581, the MBC – broadly, the lowest tested concentration that kills the bacteria rather than only halting them – was 64 µg/mL and the MIC (in general, the smallest concentration in the dilution series that meets the test's criterion for growth inhibition) is 64 µg/mL. In the assay on E. faecalis (Enterococcus faecalis, read-out: MIC), the MIC worked out at 1 µg/mL. Also, the “MIC” value in the assay on E. faecalis came out at 2.000 µg/mL. In the assay on S. lactis, the MBC amounted to 2 µg/mL, the “MBC (μg/mL)” value is 1.000 µg/mL, the MIC worked out at 1 µg/mL and the “MIC (μg/mL)” value was determined as 0.500 µg/mL.
